Reference: patent publication US6441053B1, “Inhibitors of glycogen synthase kinase-3 and methods for identifying and using the same” (The Trustees of the University of Pennsylvania, priority 1996, dated 2002)
pIC50: −log10 of the molar value. Like-named read-outs stand apart in the source and are kept apart here. One block for each compound: values may come before it.

What was measured:
GSK-3β = GSK-3β (Oryctolagus cuniculus, UniProt G1T8E2); experiment: In vitro GSK-3β activity assay (32P incorporation into substrate); assay type: biochemical, rabbit; details: for inhibition of phosphorylation of peptide substrate by GSK-3β: 20 mM of the salt in the assay mixture; for GSK-3β phosphorylation of I-2: 20 mM salt, GS-2 and τ protein phosphorylation not inhibited
Procedure: GSK-3β was assayed as described in the following paragraph using 0.5-1.0 units of GSK-3β per assay. […] GSK-3 buffer comprises 20 mM Tris-HCl, 10 mM MgCl2, 5 mM dithiothreitol, and has a pH of 7.5 at 20° C.
The assay mixture comprised 1×GSK-3 buffer, an amount of a kinase enzyme corresponding to 0.5-1.0 unit of activity, a substrate, and 200 μM [γ^32P]-ATP (approximately 500 μCi/μmol). The assay mixture was incubated for a selected period of time following which incorporation of ^32P into the substrate was determined by standard methods.
When I-2 was used as the substrate for […] in the assay, I-2 was present at a concentration of 50 μg/ml. […] The activities of protein kinase A (PKA), mitogen-activating protein kinase (ERK-1/MAP kinase), and casein kinase II (CKII) were assayed under conditions similar to those used to assay […] activity, except that β-mercaptoethanol was included in the PKA assays.

[1] = target: T1, inositol monophosphatase (IMPase) (Xenopus laevis, UniProt P29219); experiment: IMPase activity in lysates prepared from Xenopus embryos; assay type: biochemical
T1 construct: The thirty embryos were then lysed in 300 μl of IMPB; endogenous in cells; host or cells: Xenopus embryos (32-cell stage lysate supernatant; 8- to 16-cell stage embryos injected in vivo)
Procedure: Thirty Xenopus embryos at the 32-cell stage were washed with 1 ml of 50 mM Tris, pH 7.8, 250 mM KCl, 3 mM MgCl2 (IMPB). The thirty embryos were then lysed in 300 μl of IMPB. The lysate was centrifuged for 5 minutes at 20,000×g at 4° C. and the resulting lysate supernatant was recovered. […] Each lysate supernatant mixture was then incubated at room temperature for 5 minutes. One μl of ^3H-inositol-1-phosphate was added to each lysate supernatant mixture, and the incubation was continued for an additional 25 minutes. Each lysate supernatant mixture was then diluted with 1.0 ml of 0.1×MMR, boiled for 5 minutes, and applied to Dowex columns as described (Berridge et al., 1983, Biochem. J. 212:473-482). Inositol was not retained by the Dowex column, and inositol-1-phosphate was eluted by application of 3 ml of 0.1 M formic acid/1.5 M ammonium formate (Berridge et al., 1983, supra). Each assay was repeated two to four times, and similar results were obtained among all replicates.

[2] = target: T1, inositol monophosphatase (IMPase); experiment: IMPase activity in vivo in injected ventral-vegetal blastomeres; details: 10 nl of 5 mM L-690,330 microinjected into blastomeres
Procedure: Following dilution, 10 nl of the diluted ^3H-inositol-1-phosphate solution was injected into a single ventral-vegetal blastomere of an embryo which was at the 8- to 16-cell stage. […] The lysate was prepared and applied to Dowex columns as described above.

Xenopus laevis embryo = experiment: Dorsalization and development of treated or microinjected Xenopus embryos; assay type: in vivo
Procedure: Xenopus eggs were fertilized in vitro according to well established protocols (Peng, 1991, in Appendix A of Methods in Cell Biology, Kay et al., eds., Academic Press Inc, San Diego). Microinjection of embryos was performed using embryos at the 1-cell to 32-cell stage, and a volume of 5-10 nl was injected into each embryo.
L-690,330 was dissolved in water to form a solution having a concentration of L-690,330 in the range of 0.1 to 10 mM, and 5 to 10 nl of the L-690,330 solution was injected into the ventral vegetal region of 4, 8, 16, and 32 cell embryos. All four cells of individual 4-cell embryos were injected in separate experiments.

IMPase = IMPase (Homo sapiens, UniProt P29218); details: Atack et al., 1993; cited from earlier work
Xenopus embryos = experiment: Second axis formation in Xenopus embryos injected with DN-GSK-3 mRNA with or without myo-inositol; assay type: in vivo, Xenopus laevis
Procedure: mRNA specifying DN-GSK-3 was microinjected into the subequatorial region of a ventral-vegetal blastomere in an embryo at the 16-cell stage. A volume of either 5 nl or 10 nl was microinjected depending upon the concentration of mRNA in the solution being microinjected. The same procedure was used to microinject myo-inositol into an embryo. In most experiments, 10 embryos were harvested at stage 8 to assess the level of DN-GSK-3protein expressed from the injected mRNA, and the level of DN-GSK-3protein in other embryos was assessed at stage 30-35.

Sequence of GSK-3β (G1T8E2 1-432): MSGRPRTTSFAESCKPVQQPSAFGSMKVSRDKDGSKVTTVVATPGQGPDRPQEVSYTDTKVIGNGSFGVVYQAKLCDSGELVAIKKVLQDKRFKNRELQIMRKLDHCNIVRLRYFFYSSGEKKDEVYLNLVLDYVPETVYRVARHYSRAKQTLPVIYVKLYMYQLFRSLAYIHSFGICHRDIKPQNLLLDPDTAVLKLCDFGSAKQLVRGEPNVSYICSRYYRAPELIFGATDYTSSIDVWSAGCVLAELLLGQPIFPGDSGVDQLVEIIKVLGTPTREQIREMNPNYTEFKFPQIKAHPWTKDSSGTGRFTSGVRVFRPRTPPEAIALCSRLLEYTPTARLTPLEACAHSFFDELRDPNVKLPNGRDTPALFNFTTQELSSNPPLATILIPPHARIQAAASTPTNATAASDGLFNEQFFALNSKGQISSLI
T1 sequence (P29219 whole entry): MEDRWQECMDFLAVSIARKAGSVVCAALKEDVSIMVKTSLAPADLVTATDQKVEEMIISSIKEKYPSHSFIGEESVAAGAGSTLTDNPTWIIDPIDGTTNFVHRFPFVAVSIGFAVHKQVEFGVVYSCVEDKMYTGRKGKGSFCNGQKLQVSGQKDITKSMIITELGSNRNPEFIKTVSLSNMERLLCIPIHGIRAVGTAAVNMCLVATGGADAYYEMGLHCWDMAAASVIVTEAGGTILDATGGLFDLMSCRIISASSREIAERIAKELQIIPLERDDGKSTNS
Sequence of IMPase (P29218 whole entry): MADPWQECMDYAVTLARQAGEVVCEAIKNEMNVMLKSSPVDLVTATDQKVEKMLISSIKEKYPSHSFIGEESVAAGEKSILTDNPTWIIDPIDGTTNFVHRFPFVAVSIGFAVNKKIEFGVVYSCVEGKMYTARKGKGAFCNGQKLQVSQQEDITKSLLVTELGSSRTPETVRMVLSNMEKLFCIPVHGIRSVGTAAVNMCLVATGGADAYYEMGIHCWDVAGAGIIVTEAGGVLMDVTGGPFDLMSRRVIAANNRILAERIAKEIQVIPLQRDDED

Compound: [Cl-].[Cs+] [CsCl]
inhibition of phosphorylation of peptide substrate by GSK-3β (GSK-3β): Little inhibition

Compound: CC(Oc1ccc(O)cc1)(P(=O)(O)O)P(=O)(O)O [L-690,330]
pIC50 ([1]; read-out: concentration giving 50% inhibition of in vitro IMPase activity, lysates prepared from Xenopus embryos): ~6.00
pIC50 ([1]; read-out: concentration of L-690,330 giving approximately 50% inhibition of IMPase activity, FIG. 1 Panel A legend): ~3.00
level of inhibition of IMPase activity in vivo compared with 10 nl of 0.3 M LiCl [2]: several times greater
dorsalization of Xenopus embryo (Xenopus laevis embryo; 0.3 M LiCl for 6 minutes at 32-cell stage, or injection of 10 nl of 5 mM L-690,330): did not exhibit dorsalization
toxicity in microinjected embryos (Xenopus laevis embryo; highest doses of L-690,330 used): mild nonspecific toxicity
effect on development of Xenopus embryos (Xenopus laevis embryo; microinjected embryos): no discernible effect
potency as inhibitor of IMPase activity relative to lithium (IMPase): approximately thousand-fold

Compound: [Cl-].[K+] [KCl]
inhibition of phosphorylation of peptide substrate by GSK-3β (GSK-3β): Little inhibition
GSK-3β phosphorylation of I-2 (GSK-3β): partially inhibited

inhibition of phosphorylation of peptide substrate by GSK-3β (GSK-3β): Little inhibition
Compound: Cl.N [NH4Cl]

pIC50 (GSK-3β; read-out: concentration giving approximately 50% inhibition of GSK-3β activity, assays of Example 1, 0 to 10 μM tested): ~7.40
Compound: Cn1cc(C2=C(c3cn(CCCSC(=N)N)c4ccccc34)C(=O)NC2=O)c2ccccc21 [Ro31-8220]

Compound: O[C@H]1[C@H](O)[C@@H](O)[C@H](O)[C@@H](O)[C@H]1O [myo-inositol]
effect of coinjection on second axis induction by DN-GSK-3 (Xenopus embryos; coinjected with DN-GSK-3 mRNA into ventral-vegetal cell of 16-cell embryos): clearly reduced the frequency and the extent of second axis induction
effect on synthesis of DN-GSK-3 protein (Xenopus embryos; in vivo): did not inhibit

Compound: [Cl-].[Na+] [NaCl]
inhibition of phosphorylation of peptide substrate by GSK-3β (GSK-3β): Little inhibition
GSK-3β phosphorylation of I-2 (GSK-3β): partially inhibited
